Measured values reported in patent publication US20110038885A1, “CHEMOKINE ANALOGS” (priority 2007, published 2011).
Bridge positions count the residues as written; N and C are the ends. Square brackets hold non-standard residues; d marks the D form. Peptide text beside a SMILES is read from it. AEEA = NCCOCCOCC(=O)O; Aoc = NCCCCCCCC(=O)O; Ahx = NCCCCCC(=O)O; GABA = NCCCC(=O)O

Key:
[1] = tested on: IL-8; assay: In vitro chemotaxis, inhibition v IL-8; format: cell-based, human; design: concentration or dose not given beside the values
Method: To determine whether an agent inhibits a chemokine-induced activity, such as macrophage recruitment, varying amounts of the agent are mixed with cells in the presence of a known chemoattractant. For example, a range of known concentrations of an agent, e.g., a chemokine peptide, is incubated with a defined number (e.g., 10^4-10^6) of human THP-1 monocyte cells in individual wells of the top compartment of a trans-well plate. Chemokine, at a concentration known to cause significant migration of THP-1 cells in the trans-well migration assay, is placed in the lower compartment of a trans-well plate. Cells are then incubated at 37° C. for a period sufficient to allow migration, e.g., 4 hours. After incubation, the cells are gently removed from the top of the filter with a pipette, 20 μl of 20 mM EDTA in simple PBS is added into each top well, and incubated for 20 minutes at 4° C. The filter is carefully flushed with media using a gentle flow, and removed. A standard curve consisting of a two-fold dilution series of THP-1 cells (in 29 μl) is placed to accurately quantify the number of cells that have migrated. Migrated cells are stained with 3 μl of MTT stock dye solution which is added directly into each well (5 mg/ml in RPMI-1640 without phenol red) (Sigma Chemical Co., St. Louis, Mo., USA) and incubated at 37° C. for 4 hours. The media is carefully aspirated from each well, and the converted dye is solubilized by 20 μl of DMSO. Absorbance of converted dye is measured at a wavelength of 595 nm using an ELISA plate reader. The number of migrated cells in each well is then determined by interpolation of the standard curve (see also Imai et al., J. Biol. Chem., 272:15036, 1997). Any method suitable for counting cells can be used, for example, counting with a hemocytometer, incubation of the cells with MTT (see above), or FACS analysis. A negative control assay is also performed, using TGFβ or another non-chemokine chemoattractant (e.g., IL1β or TNFα). To assess whether the agent is cytotoxic, the same concentrations of agent are incubated with THP-1 cells. Agents which 1) are not cytotoxic at levels which inhibit migration, 2) are ineffective at inhibiting the negative control-induced migration, and 3) reduce or inhibit chemokine-induced THP-1 migration, are agents which fall within the scope of the invention.

[2] = tested on: MCP-1; assay: In vitro chemotaxis (trans-well migration) v MCP-1; format: cell-based, human
How it was run: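 Human THP-1 monocytes (10^4-10^6) with agent at varying concentrations in upper trans-well chamber; IL-8 or MCP-1 in lower chamber at a migration-inducing concentration, 37° C for e.g. 4 hours. Migrated cells quantified by MTT (595 nm) against a THP-1 standard curve; cytotoxicity and non-chemokine chemoattractant controls run.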

| Compound | EC50 [2] [nM] | v IL-8 inhibition (%) [1] [%] |
| --- | --- | --- |
| CC[C@H](C)[C@@H]1NC(=O)[C@H](Cc2c[nH]c3ccccc23)NC(=O)[C@H](CCCCN)NC(=O)[C@@H](NC(=O)[C@H](CCC(N)=O)NC(=O)[C@H](CCCCN)NC(=O)[C@@H]2CCCN2)CSSC[C@@H](C(N)=O)NC(=O)[C@H](CCC(N)=O)NC1=O [Example 45, Pro-Lys-Gln-c(Cys-Lys-Trp-Ile-Gln-Cys)-NH2] (H-PKQCKWIQC-NH2; disulfide 4-9) | 150 | 74.2 |
| CC[C@H](C)[C@@H]1NC(=O)[C@H](Cc2c[nH]c3ccccc23)NC(=O)[C@H](CCCCN)NC(=O)[C@H](CCC(N)=O)NC(=O)[C@H](CCCCN)NC(=O)[C@@H]2CCCN2C(=O)[C@@H](N)CSSC[C@@H](C(N)=O)NC(=O)[C@H](CCC(N)=O)NC1=O [Example 46, c(Cys-Pro-Lys-Gln-Lys-Trp-Ile-Gln-Cys)-NH2] (H-CPKQKWIQC-NH2; disulfide 1-9) | 150 | 52.4 |
| CC[C@H](C)[C@@H]1NC(=O)[C@H](Cc2c[nH]c3ccccc23)NC(=O)[C@H](CCCCN)NC(=O)[C@H](CCC(N)=O)NC(=O)[C@@H](NC(=O)[C@@H](N)CCCCN)CSSC[C@@H](C(N)=O)NC(=O)[C@H](CCC(N)=O)NC1=O [Example 47, Lys-c(Cys-Gln-Lys-Trp-Ile-Gln-Cys)-NH2] (H-KCQKWIQC-NH2; disulfide 2-8) | 20 | 103.2 |
| CC[C@H](C)[C@@H]1NC(=O)[C@H](Cc2c[nH]c3ccccc23)NC(=O)[C@H](CCCCN)NC(=O)[C@H](CCC(N)=O)NC(=O)[C@H](CCCCN)NC(=O)[C@@H](N)CSSC[C@@H](C(N)=O)NC(=O)[C@H](CCC(N)=O)NC1=O [Example 49, c(Cys-Lys-Gln-Lys-Trp-Ile-Gln-Cys)-NH2] (H-CKQKWIQC-NH2; disulfide 1-8) | 100 | 72.6 |
| CC[C@H](C)[C@@H]1NC(=O)[C@H](Cc2c[nH]c3ccccc23)NC(=O)[C@H](CCCCN)NC(=O)[C@H](CCC(N)=O)NC(=O)[C@@H](N)CSSC[C@@H](C(N)=O)NC(=O)[C@H](CCC(N)=O)NC1=O [Example 50, c(Cys-Gln-Lys-Trp-Ile-Gln-Cys)-NH2] (H-CQKWIQC-NH2; disulfide 1-7) | 25 | 104.8 |
| CC[C@H](C)[C@@H]1NC(=O)[C@H](Cc2c[nH]c3ccccc23)NC(=O)[C@@H](NC(=O)[C@@H](N)CCCCN)CSSC[C@@H](C(N)=O)NC(=O)[C@H](CCC(N)=O)NC1=O [Example 51, Lys-c(Cys-Trp-Ile-Gln-Cys)-NH2] (H-KCWIQC-NH2; disulfide 2-6) | 80 | 115.9 |
| CC[C@@H](C)[C@H]1NC(=O)[C@@H](CCC(N)=O)NC(=O)[C@H](N)CSSC[C@H](C(=O)NCCOCCOCC(=O)NCCCCCCCC(=O)O)NC(=O)[C@@H](CC(C)C)NC(=O)[C@@H](CC(=O)O)NC(=O)[C@H]2CCCN2C(=O)[C@@H](CCCCN)NC(=O)[C@@H](CCC(N)=O)NC(=O)[C@@H](CCCCN)NC(=O)[C@@H](Cc2c[nH]c3ccccc23)NC1=O [Example 138, c(D-Cys-D-Gln-D-Ile-D-Trp-D-Lys-D-Gln-D-Lys-D-Pro-D-Asp-D-Leu-D-Cys)-Doc-Aoc-OH] (H-[dC][dQ][dI][dW][dK][dQ][dK][dP][dD][dL][dC][AEEA][Aoc]-OH; disulfide 1-11) | 20 | 98.4 |
| CC[C@@H](C)[C@H]1NC(=O)[C@@H](CCC(N)=O)NC(=O)[C@H](N)CSSC[C@H](C(=O)NCCCC(=O)O)NC(=O)[C@@H](CC(C)C)NC(=O)[C@@H](CC(=O)O)NC(=O)[C@H]2CCCN2C(=O)[C@@H](CCCCN)NC(=O)[C@@H](CCC(N)=O)NC(=O)[C@@H](CCCCN)NC(=O)[C@@H](Cc2c[nH]c3ccccc23)NC1=O [Example 142, c(D-Cys-D-Gln-D-Ile-D-Trp-D-Lys-D-Gln-D-Lys-D-Pro-D-Asp-D-Leu-D-Cys)-Gaba-OH] (H-[dC][dQ][dI][dW][dK][dQ][dK][dP][dD][dL][dC][GABA]-OH; disulfide 1-11) | 20 | 107.3 |
| CC[C@@H](C)[C@H]1NC(=O)[C@@H](CCC(N)=O)NC(=O)[C@H](N)CSSC[C@H](C(=O)NCCCCCC(=O)O)NC(=O)[C@@H](CC(C)C)NC(=O)[C@@H](CC(=O)O)NC(=O)[C@H]2CCCN2C(=O)[C@@H](CCCCN)NC(=O)[C@@H](CCC(N)=O)NC(=O)[C@@H](CCCCN)NC(=O)[C@@H](Cc2c[nH]c3ccccc23)NC1=O [Example 143, c(D-Cys-D-Gln-D-Ile-D-Trp-D-Lys-D-Gln-D-Lys-D-Pro-D-Asp-D-Leu-D-Cys)-Ahx-OH] (H-[dC][dQ][dI][dW][dK][dQ][dK][dP][dD][dL][dC][Ahx]-OH; disulfide 1-11) | 30 | 103.5 |

Continued, in another order:

| EC50 [2] [nM] | Compound | v IL-8 inhibition (%) [1] [%] |
| --- | --- | --- |
| 100 | CC[C@@H](C)[C@H]1NC(=O)[C@@H](CCC(N)=O)NC(=O)[C@H](N)CSSC[C@H](C(=O)NCCCCCCCC(=O)O)NC(=O)[C@@H](CC(C)C)NC(=O)[C@@H](CC(=O)O)NC(=O)[C@H]2CCCN2C(=O)[C@@H](CCCCN)NC(=O)[C@@H](CCC(N)=O)NC(=O)[C@@H](CCCCN)NC(=O)[C@@H](Cc2c[nH]c3ccccc23)NC1=O [Example 139, c(D-Cys-D-Gln-D-Ile-D-Trp-D-Lys-D-Gln-D-Lys-D-Pro-D-Asp-D-Leu-D-Cys)-Aoc-OH] (H-[dC][dQ][dI][dW][dK][dQ][dK][dP][dD][dL][dC][Aoc]-OH; disulfide 1-11) | 47.0 |
| 400 | CC[C@@H](C)[C@H]1NC(=O)[C@@H](CCC(N)=O)NC(=O)[C@H](N)CSSC[C@H](C(=O)N[C@H](C(=O)N[C@@H](CCC(=O)O)C(=O)NCCCCCCCC(=O)O)[C@@H](C)CC)NC(=O)[C@@H](CC(C)C)NC(=O)[C@@H](CC(=O)O)NC(=O)[C@H]2CCCN2C(=O)[C@@H](CCCCN)NC(=O)[C@@H](CCC(N)=O)NC(=O)[C@@H](CCCCN)NC(=O)[C@@H](Cc2c[nH]c3ccccc23)NC1=O [Example 140, c(D-Cys-D-Gln-D-Ile-D-Trp-D-Lys-D-Gln-D-Lys-D-Pro-D-Asp-D-Leu-D-Cys)-Ile-Glu-Aoc-OH] (H-[dC][dQ][dI][dW][dK][dQ][dK][dP][dD][dL][dC]IE[Aoc]-OH; disulfide 1-11) | 43.4 |
| 330 | CC[C@@H](C)[C@H]1NC(=O)[C@@H](CCC(N)=O)NC(=O)[C@H](N)CSSC[C@H](C(=O)N[C@@H](C(=O)N[C@H](CCC(=O)O)C(=O)NCCCCCCCC(=O)O)C(C)C)NC(=O)[C@@H](CC(C)C)NC(=O)[C@@H](CC(=O)O)NC(=O)[C@H]2CCCN2C(=O)[C@@H](CCCCN)NC(=O)[C@@H](CCC(N)=O)NC(=O)[C@@H](CCCCN)NC(=O)[C@@H](Cc2c[nH]c3ccccc23)NC1=O [Example 141, c(D-Cys-D-Gln-D-Ile-D-Trp-D-Lys-D-Gln-D-Lys-D-Pro-D-Asp-D-Leu-D-Cys)-D-Val-D-Glu-Aoc-OH] (H-[dC][dQ][dI][dW][dK][dQ][dK][dP][dD][dL][dC][dV][dE][Aoc]-OH; disulfide 1-11) | 27.5 |
| 3000 | CC[C@@H](C)[C@H]1NC(=O)[C@@H](CCC(N)=O)NC(=O)[C@H](N)CSSC[C@H](C(=O)N[C@@H](CC(=O)O)C(=O)NCCCCCCCC(=O)O)NC(=O)[C@@H](CC(C)C)NC(=O)[C@@H](CC(=O)O)NC(=O)[C@H]2CCCN2C(=O)[C@@H](CCCCN)NC(=O)[C@@H](CCC(N)=O)NC(=O)[C@@H](CCCCN)NC(=O)[C@@H](Cc2c[nH]c3ccccc23)NC1=O [Example 144, c(D-Cys-D-Gln-D-Ile-D-Trp-D-Lys-D-Gln-D-Lys-D-Pro-D-Asp-D-Leu-D-Cys)-Asp-Aoc-OH] (H-[dC][dQ][dI][dW][dK][dQ][dK][dP][dD][dL][dC]D[Aoc]-OH; disulfide 1-11) | 25.4 |
| 200 | CC[C@@H](C)[C@H]1NC(=O)[C@@H](CCC(N)=O)NC(=O)[C@H](N)CSSC[C@H](C(=O)N[C@@H](CCC(=O)O)C(=O)NCCCCCCCC(=O)O)NC(=O)[C@@H](CC(C)C)NC(=O)[C@@H](CC(=O)O)NC(=O)[C@H]2CCCN2C(=O)[C@@H](CCCCN)NC(=O)[C@@H](CCC(N)=O)NC(=O)[C@@H](CCCCN)NC(=O)[C@@H](Cc2c[nH]c3ccccc23)NC1=O [Example 145, c(D-Cys-D-Gln-D-Ile-D-Trp-D-Lys-D-Gln-D-Lys-D-Pro-D-Asp-D-Leu-D-Cys)-Glu-Aoc-OH] (H-[dC][dQ][dI][dW][dK][dQ][dK][dP][dD][dL][dC]E[Aoc]-OH; disulfide 1-11) | 23.8 |
